Source: patent US20240226211A9, “SEAWEED EXTRACTS, ISOLATED COMPOUNDS, AND METHODS OF TREATMENT” (University of Florida Research Foundation, Incorporated, priority 2017, published 2024)

Legend:
[1] = system: Cox2; test: Cox2 transcript levels in RAW264.7 macrophage cells; type: cell-based, mouse; conditions: 10 μM Compound 1, IFN-γ
Procedure: (§1) The RNeasy Mini Kit (Qiagen) was used to collect total RNA from cells, while for mouse tissue, TRIzol reagent (Invitrogen) was used. In each case, total RNAs (2 μg) were reverse-transcribed into cDNAs, which were used as templates for TaqMan gene expression assay (Applied Biosystems) and detected using the 7300 Real-Time PCR System (Applied Biosystems). Each qPCR sample was tested in triplicate as a 25 μL total reaction volume (12.5 μL of Taqman 2× universal master mix, 1.25 μL of a 20× TaqMan gene expression assay probe, 1 μL of the above cDNA, and 10.25 μL of RNase-free sterile water). The qPCR method was designed as following: 50° C. for 2 min, 95° C. for 10 min, and 40 cycles of 95° C. for 15 s and 60° C. for 1 min. Endogenous controls used included GAPDH for IMR-32 cells and β-actin to normalize for RAW264.7 cells and mouse tissues.
(§2) RAW264.7 cells were seeded in 6-well plates (8×10^5 cells/well) and incubated at 37° C. overnight.

[2] = system: Nqo1; test: Nqo1 activity assay in MEFs; type: cell-based, murine
Procedure: Wild-type (8×10^3 cells/well), Nrf2−/− (8×10^3 cells/well), and Keap1−/− (4×10^3 cells/well) MEFs were seeded into a 96-well format and incubated overnight at 37° C. Cells were treated with a solvent control (DMSO, 1%, v/v) or serial dilutions of isolated compounds or extracts for 40 hours.

[3] = system: ARE-driven genes (GCLC, Gclm, TXNRD1, GSTA4, HMOX1); test: qPCR of ARE-driven genes in IMR-32 cells; type: cell-based, human
Procedure: as §1

[4] = system: nitric oxide (NO) production in RAW264.7 cells; test: NO assay in RAW264.7 cells; type: cell-based, mouse; conditions: 10 μM Compound 1, IFN-γ
Procedure: RAW264.7 cells (2×10^4 cells/well), wild-type (8×10^3 cells/well), Nrf2−/−(7×10^3 cells/well), and Keap1−/−(5×10^3 cells/well) MEF were seeded into 96-well format. Cells were pretreated for 1 h with a solvent control (DMSO, 1%, v/v) or serial dilutions of isolated compounds or extracts before addition of LPS (1 μg/mL) or IFN-γ (10 ng/mL). […] In each case, 50 μL of the media was combined with 50 μL Griess Reagent (Promega). Absorbance was measured at 540 nm and compared with a calibration curve generated using the provided […] standard.

[5] = system: Hmox1; test: Hmox1 transcript levels in mouse organs after oral gavage; type: in vivo; conditions: mice, particularly digestive tract
Procedure: as §1
The experiments were approved by the Institutional Animal Care & Use Committee at the University of Florida. Groups of 5-10 wild type male mice (C57BL/6J) were used for each treatment type. The mice were maintained under approved standard conditions. […] The tissues were harvested immediately, frozen on dry ice, and kept at −80° C. until analyzed.
A low dose and a high dose of cymopol (1) or the NP extract were administered to 4-week-old male mice via oral gavage.

[6] = system: Nqo1; test: Nqo1 transcript levels in RAW264.7 macrophage cells; type: cell-based, mouse; conditions: 10 μM Compound 1, IFN-γ
Procedure: as §1, §2

[7] = system: neutrophil migration to cut site, Tg(mpx::GFP) zebrafish; test: Zebrafish in vivo neutrophil migration assay; set-up: species or system Danio rerio; conditions: relative to DMSO vehicle control
Procedure: Tg(mpx::GFP)^ill4 transgenic zebrafish larvae (6 dpf) were pre-treated in duplicate with a solvent control ((DMSO, 1%, v/v) or serial dilutions of the compound or extract in 12-well plate format with five larvae per well containing 1 mL E2 medium containing 1 mM Tris pH 7.4. After 3 hours, larvae were anesthetised with Tricaine and tailfins were amputated using sharp blades to induce the migration of neutrophils. The larvae were then placed into fresh wells to be post-treated for an additional 3 hours. A fluorescence stereomicroscope was used to count the number of neutrophils that migrated to the site of injury. The assay was performed in triplicate to determine statistical significance.
For in vivo evaluation, a previously reported neutrophil migration assay in the model organism, Danio rerio, was used [Wang X, et al. (2014) Inhibitors of neutrophil recruitment identified using transgenic zebrafish to screen a natural product library. Dis Model Mech 7(1):163-169]. […] The fish were then quickly transferred into fresh media containing the treatments for an additional 3 h before the GFP-tagged neutrophils were counted under the fluorescent microscope. […]

Compound: CC(C)=CCC/C(C)=C/Cc1cc(O)c(Br)cc1O [Compound 1, (E)-2-bromo-5-(3,7-dimethylocta-2,6-dien-1-yl)benzene-1,4-diol]
- reduction of Cox2 transcript levels [1]: 90%
- Nqo1 enzymatic activity ([2]; each MEF cell type relative to DMSO control): induce Nqo1 enzymatic activity in a dose-dependent manner
- relative Nqo1 activity, wild-type versus knockout MEFs ([2]; high concentrations): more so in wild-type than in Nrf2 and Keap1 knockout MEFs
- transcription of a series of ARE-driven genes [3]: induce the transcription of a series of ARE-driven genes
- reduction in levels of NO [4]: > 96%
- transcript levels of Hmox1 in various organs [5]: elevated transcript levels of Hmox1
- increase of Nqo1 transcript levels [6]: > 96%
- number of neutrophils at the cut site [7]: decrease of neutrophils
